Test results published in patent US12178838B2, “Synthetic neuromodulatory peptides” (Lactocore, Inc., priority 2019, dated 2024).
Read-outs that look alike come from different tables or passages of the source.

Assays:
[1] = system: zebrafish (Danio rerio); test: Light/dark box test in zebrafish; assay type: in vivo; conditions: ip
Experimental: (§1) The tested substances were injected into the zebrafish intraperitoneally (ip) using an insulin syringe (0.5 ml, 30 g) 10 minutes before the test. The saline solution (0.9% NaCl) was used as a solvent. Anesthesia and immobilization of the animals were achieved by placing them in water at a temperature of 10° C. Control group fish received intraperitoneal injections of an equivalent volume of solvent, also after going through a pre-cooling procedure.
(§2) A base, back, and side walls of the aquarium were made of matte black plastic; the front panel (shorter wall) was made of transparent Plexiglas. The setup for the Light/Dark preference test consisted of three main parts: a launch compartment, a light compartment made of white plastic, and a dark compartment made of black plastic. The bright lighting in these tests was provided by a lamp on a stand (LED lamp PL, 11 W, light flux≈600 Lm, about 500 Lx directly above the water surface), which was attached to the upper part of the aquarium.
The light/dark box (LDB) test was performed as described in Maximino et al., 2011. The zebrafish was placed in a light compartment of an LDB using a net, the camera was switched on simultaneously, and the behavior of the zebrafish was recorded for 5 minutes. The video was processed using RealTimer (OpenScience). During the processing of records, the residence time and the number of visits to the light and dark compartments of the test setup were recorded, as well as the latent period of visiting both compartments.

[2] = system: zebrafish (Danio rerio); test: Open Field test in zebrafish; assay type: in vivo; conditions: ip
Experimental: as §1, §2
The open field test was performed as described in Maximino et al., 2013. A video recording (background shooting) was started 20-30 seconds before the zebrafish were placed in the test aquarium. The experimental zebrafish was placed in an open field (“OF”) aquarium using a net. The recording was being conducted for five minutes. The test was carried out using EthoVision XT software package (Noldus). The software registered the distance covered by the animal, its speed, the number of visits to the three conventional zones of the aquarium: “bottom,” “center,” and […] (lower, middle, and upper thirds of the aquarium, respectively), the time spent in these zones, and the latency of a visit to the middle and to the surface of the aquarium.

[3] = system: BALB/C mice; test: Elevated Plus Maze test in mice; assay type: in vivo; conditions: ip, Diazepam 0.75 mg/kg
Experimental: After an adaptation period, the test substance was intraperitoneally injected into mice. Behavioral parameters were measured in 30 minutes after injection. The tests were administered as follows: day 1—the Open field test, day 3—the Elevated plus maze test, day 5—the Marble burying test, days 12-13—the Porsolt swim (two-day modification) test.
In the elevated plus maze test, a test arena includes two open and two closed arms crossed in the middle. The arm length is 30 cm, the height of the closed arms side walls is 15 cm. The entire installation is raised 70 cm above the floor. The open arms have bright uniform illumination of about 400 lux, and the closed arms have illumination of about 30-40 lux. Mice were placed at the junction of the four arms of the maze (center), facing an open arm. The following behavioral parameters were automatically registered by the EthoVision, Noldus program within 5 minutes of the experiment: a total distance (cm), a time of motion (if the speed is more than 5 cm/s), an immobility (if the speed is less than 0.2 cm/sec), a mean and maximum velocity, and the number of episodes of motor activity and “freezing”. The same set of parameters, as well as a latent period and the duration of stay, were measured for the central sector, open and closed arms separately. (Manufactured by OpenScience, Russia).
All substances were injected intraperitoneally in a volume of 10 μl of solution per 1 gram of animal weight 30 minutes prior to behavioral testing.
The second group of parameters includes a time on open arms (in seconds) (FIG. 35), a number of open arms entries (FIG. 36), a number of risk behavior (number of rearings and dangle events, as shown in FIG. 37]), and an anxiety index (FIG. 38). The anxiety index (AI) was calculated using the following formula: AI=100*(1−(time on open arms/total test time+open arms entries/total number of entries)/2)

[4] = target: FQSE (SEQ ID NO:10)-specific binding sites in the rat cortex; test: Radioligand analysis with [3H] FQSE on rat cortex membranes
Experimental: After decapitation, the tissues were immediately frozen in liquid nitrogen and stored in a low-temperature refrigerator at −80° C. On the day of the experiment, brain tissue (cortex, about 300 mg) was homogenized in a Teflon-glass Potter homogenizer 1:25 W:V in the buffer (50 mM Tris-HCl, pH 7.4). The homogenate was centrifuged at 40,000 g for 20 min. The obtained precipitate was homogenized in a buffer (50 mM Tris-HCl; pH=7.4) and centrifuged again at 40,000 g for 20 min. A similar procedure was performed again. The precipitate was resuspended in 15 ml of the same buffer and used for the radioligand analysis.
The incubation mixture (final volume 0.5 ml) contained 50 μl […]
At the end of the incubation, the samples were filtered through Ge/C glass fiber filters (Whatman) previously moistened with 0.3% polyethyleneimine for 2 hours at room temperature. Each tube was washed twice with cold buffer, then the filters were washed twice with the same volume of buffer.
The filters were air-dried and transferred to scintillation vials. Filters were poured with 5 ml of toluene-based scintillation liquid (4 g PPO, 0.2 g POPOP per liter of toluene).
To construct the curves of the radioactive ligand's displacement each concentration of the test substance was taken in 3 replications. […]

## CN1C(=O)CN=C(c2ccccc2)c2cc(Cl)ccc21 [Diazepam]
[1]; diazepam 5 mg/kg, FQSE 10 mg/kg, WDQV 10 mg/kg
  time spent in the light compartment: increased dramatically
[1]; diazepam 10 mg/kg
  number of transitions between the light and dark compartments: increase
  time of the first exit (latent period) to the light chamber: decrease
[2]; diazepam 10 mg/kg
  distance covered during the open field test: tended to cover a smaller distance
[2]; diazepam 1.25, 5, 10, fluvoxamine 5, 10, ACZ-10 0.6, BCM-7 5, FQSE 1 and 10, DKTE 1, WDQV 10 mg/kg
  average distance covered / track length (locomotor activity): did not demonstrate any significant effects
[2]; diazepam 1.25 and 5 mg/kg
  behavior in the open field test: No effects
[3]; FQSE 20 mg/kg
  Time on open arms: 67.4 ± 18.43 s
[3]; FQSE 1 mg/kg
  Open arms entries: 6.5±0.99
  The number of risk behavior: 15±2.8
  total distance: 1219±91.4 cm
[4]; read-out: IC50 after different incubation times: 50 min
  IC50: 52 ± 0.3 µM
[4]; read-out: IC50 after different incubation times: 1 h
  IC50: 89 ± 0.3 µM
[4]; read-out: IC50 after different incubation times: 1 h 30 min
  IC50: 95 ± 0.2 µM
[4]; read-out: IC50 for the [3H]-FQSE binding sites in rat cortex membranes
  IC50: ~100 µM
